Laboratory results published in patent US20260207636A1, “PRODRUGS OF DIMETHOXYPHENYL[…] SEROTONIN RECEPTORS” (priority 2022, published 2026).

Key:
[1] = Compound chemical stability in SGF without pepsin; assay type: physicochemical
Experimental: (§1) Compounds 1-6 were assessed for their stability in various environments, including phosphate buffered saline (PBS), simulated gastric fluid (SGF) with pepsin, SGF without pepsin, and mouse plasma, using standard stability assay protocols.

[2] = Compound chemical stability in PBS (pH 6.5); assay type: physicochemical
Experimental: as §1

[3] = Compound mouse plasma stability; assay type: in vitro ADME
Experimental: as §1

[4] = Compound chemical stability in SGF with pepsin; assay type: physicochemical
Experimental: as §1

COc1ccc(OC)c(CCN(Cc2cc(C)cc(Cl)c2)Cc2oc(=O)oc2C)c1 [Compound 2, 4-(((3-Chloro-5-methylbenzyl)(2,5-dimethoxyphenethyl)amino)methyl)-5-methyl-1,3-dioxol-2-one]
% Remaining ([1]; 0 minutes): 100%
% Remaining ([1]; 30 minutes): 100%
% Remaining ([1]; 60 minutes): 96%
% Remaining ([1]; 120 minutes): 86%
% Remaining ([1]; 240 minutes): 72%
% Remaining ([2]; 0 minutes): 100%
% Remaining ([2]; 30 minutes): 66%
% Remaining ([2]; 60 minutes): 43%
% Remaining ([2]; 120 minutes): 15%
% Remaining ([2]; 240 minutes): 2%
% Remaining ([3]; 0 minutes): 100%
% Remaining ([3]; 30 minutes): 73%
% Remaining ([3]; 60 minutes): 61%
% Remaining ([3]; 120 minutes): 41%
% Remaining ([3]; 240 minutes): 20%
% Remaining ([4]; 0 minutes): 100%
% Remaining ([4]; 30 minutes): 93%
% Remaining ([4]; 60 minutes): 93%
% Remaining ([4]; 120 minutes): 84%
% Remaining ([4]; 240 minutes): 70%

COc1ccc(OC)c(CCN(Cc2cc(C)cc(Cl)c2)C(=O)OCc2oc(=O)oc2C)c1 [Compound 3, (5-Methyl-2-oxo-1,3-dioxol-4-yl)methyl (3-chloro-5-methylbenzyl)(2,5-dimethoxyphenethyl)carbamate]
% Remaining ([1]; 0 minutes): 100%
% Remaining ([1]; 30 minutes): 105%
% Remaining ([1]; 60 minutes): 109%
% Remaining ([1]; 120 minutes): 106%
% Remaining ([1]; 240 minutes): 107%
% Remaining ([2]; 0 minutes): 100%
% Remaining ([2]; 30 minutes): 97%
% Remaining ([2]; 60 minutes): 94%
% Remaining ([2]; 120 minutes): 89%
% Remaining ([2]; 240 minutes): 67%
% Remaining ([3]; 0 minutes): 100%
% Remaining ([3]; 30 minutes): 00%
% Remaining ([3]; 60 minutes): 00%
% Remaining ([3]; 120 minutes): 00%
% Remaining ([3]; 240 minutes): 00%
% Remaining ([4]; 0 minutes): 100%
% Remaining ([4]; 30 minutes): 105%
% Remaining ([4]; 60 minutes): 105%
% Remaining ([4]; 120 minutes): 93%
% Remaining ([4]; 240 minutes): 106%

COc1ccc(OC)c(CCN(Cc2cc(C)cc(Cl)c2)C(=O)OC(C)OC(=O)C(C)(C)C)c1 (stereo not shown) [Compound 4, 1-(((3-Chloro-5-methylbenzyl)(2,5-dimethoxyphenethyl)carbamoyl)oxy)ethyl pivalate]
% Remaining ([1]; 0 minutes): 100%
% Remaining ([1]; 30 minutes): 90%
% Remaining ([1]; 60 minutes): 89%
% Remaining ([1]; 120 minutes): 96%
% Remaining ([1]; 240 minutes): 88%
% Remaining ([2]; 0 minutes): 100%
% Remaining ([2]; 30 minutes): 102%
% Remaining ([2]; 60 minutes): 101%
% Remaining ([2]; 120 minutes): 102%
% Remaining ([2]; 240 minutes): 116%
% Remaining ([3]; 0 minutes): 100%
% Remaining ([3]; 30 minutes): 2%
% Remaining ([3]; 60 minutes): 1%
% Remaining ([3]; 120 minutes): 00%
% Remaining ([3]; 240 minutes): 00%
% Remaining ([4]; 0 minutes): 100%
% Remaining ([4]; 30 minutes): 93%
% Remaining ([4]; 60 minutes): 96%
% Remaining ([4]; 120 minutes): 94%
% Remaining ([4]; 240 minutes): 105%

CCOC(=O)N(CCc1cc(OC)ccc1OC)Cc1cc(C)cc(Cl)c1 [Compound 5, Ethyl (3-chloro-5-methylbenzyl)(2,5-dimethoxyphenethyl)carbamate]
% Remaining ([1]; 0 minutes): 100%
% Remaining ([1]; 30 minutes): 100%
% Remaining ([1]; 60 minutes): 88%
% Remaining ([1]; 120 minutes): 94%
% Remaining ([1]; 240 minutes): 101%
% Remaining ([2]; 0 minutes): 100%
% Remaining ([2]; 30 minutes): 96%
% Remaining ([2]; 60 minutes): 99%
% Remaining ([2]; 120 minutes): 101%
% Remaining ([2]; 240 minutes): 94%
% Remaining ([3]; 0 minutes): 100%
% Remaining ([3]; 30 minutes): 88%
% Remaining ([3]; 60 minutes): 86%
% Remaining ([3]; 120 minutes): 91%
% Remaining ([3]; 240 minutes): 87%
% Remaining ([4]; 0 minutes): 100%
% Remaining ([4]; 30 minutes): 97%
% Remaining ([4]; 60 minutes): 92%
% Remaining ([4]; 120 minutes): 90%
% Remaining ([4]; 240 minutes): 80%

COc1ccc(OC)c(CCN(Cc2cc(C)cc(Cl)c2)C(=O)CN)c1 [Compound 6, 2-Amino-N-(3-chloro-5-methylbenzyl)-N-(2,5-dimethoxyphenethyl)acetamide]
% Remaining ([1]; 0 minutes): 100%
% Remaining ([1]; 30 minutes): 98%
% Remaining ([1]; 60 minutes): 99%
% Remaining ([1]; 120 minutes): 95%
% Remaining ([1]; 240 minutes): 96%
% Remaining ([2]; 0 minutes): 100%
% Remaining ([2]; 30 minutes): 91%
% Remaining ([2]; 60 minutes): 94%
% Remaining ([2]; 120 minutes): 93%
% Remaining ([2]; 240 minutes): 93%
% Remaining ([3]; 0 minutes): 100%
% Remaining ([3]; 30 minutes): 85%
% Remaining ([3]; 60 minutes): 82%
% Remaining ([3]; 120 minutes): 89%
% Remaining ([3]; 240 minutes): 86%
% Remaining ([4]; 0 minutes): 100%
% Remaining ([4]; 30 minutes): 95%
% Remaining ([4]; 60 minutes): 97%
% Remaining ([4]; 120 minutes): 96%
% Remaining ([4]; 240 minutes): 94%
